Values of other authors in patent publication US20060029556A1, “Aqueous-alcoholic depigmenting gels” (GALDERMA RESEARCH & DEVELOPMENT, S.N.C., priority 2002, published 2006).
Like-named read-outs stand apart in the source and are kept apart here.

## Oc1ccc(O)cc1 [hydroquinone]
Hydroquinone concentration 10%
  incidence of irritation: relatively high
Hydroquinone concentration of 2%
  incidence of irritation: virtually nonexistent
Hydroquinone preparations with a 5% dose
  incidence of irritation: reduces greatly
